For one assay, the system named is CypA-CA interaction. The note with it: CsA 2.5 μM, CRFK; DEBIO-025 in Jurkat.
A further assay relates to T5-mediated restriction. The assay is described as follows: Disruption of T5Cyp-mediated HIV-1 restriction by arsenic trioxide in CRFK cells. The assay is classed as cell-based. To be noted: increasing amounts. The protocol: This drug was previously shown to inhibit T5-mediated restriction (Sebastian et al., 2006).
Puromycin was used at 1 μM.

Method for CypA-CA interaction: All chemicals were obtained from Sigma unless otherwise noted. Puromycin was used at 1 μM. […] Arsenic trioxide (As2O3) was made at 100 mM in 1N sodium hydroxide (NaOH) and then further diluted to 1 mM in phosphate buffered saline (PBS). pH was adjusted to 7.5 with hydrochloric acid and stored at 4° C.

As for `C/C=C/C[C@@H](C)[C@@H](O)[C@H]1C(=O)N[C@@H](CC)C(=O)N(C)[C@H](C)C(=O)N(CC)[C@@H](C(C)C)C(=O)N[C@@H](C(C)C)C(=O)N(C)[C@@H](CC(C)C)C(=O)N[C@@H](C)C(=O)N[C@H](C)C(=O)N(C)[C@@H](CC(C)C)C(=O)N(C)[C@@H](CC(C)C)C(=O)N(C)[C@@H](C(C)C)C(=O)N1C` [DEBIO-025], the “effect on HIV-1 restriction by AoT5Cyp and hT5Cyp” value in the assay on CypA-CA interaction is reported as “Equivalent results”. In the case of arsenic trioxide [As2O3], the “effect on AoT5Cyp and hT5Cyp restriction activity” value in the assay with T5-mediated restriction is on record as “blocked to the same extent”.
